Results taken from patent US20250152526A1, “USES OF IVALTINOSTAT FOR TREATING PANCREATIC CANCER” (CG PHARMACEUTICALS, INC, priority 2022, published 2025).

How the values were obtained:
pancreatic cancer = details: 1250 mg/m^2 twice daily for 2 weeks followed by 1-week rest, first line; cited from earlier work
CYP1A2 = biological target: T1, CYP1A2 (Homo sapiens, UniProt P05177); test: in vitro CYP inhibition; type: in vitro ADME
T1 sequence (P05177 1-516): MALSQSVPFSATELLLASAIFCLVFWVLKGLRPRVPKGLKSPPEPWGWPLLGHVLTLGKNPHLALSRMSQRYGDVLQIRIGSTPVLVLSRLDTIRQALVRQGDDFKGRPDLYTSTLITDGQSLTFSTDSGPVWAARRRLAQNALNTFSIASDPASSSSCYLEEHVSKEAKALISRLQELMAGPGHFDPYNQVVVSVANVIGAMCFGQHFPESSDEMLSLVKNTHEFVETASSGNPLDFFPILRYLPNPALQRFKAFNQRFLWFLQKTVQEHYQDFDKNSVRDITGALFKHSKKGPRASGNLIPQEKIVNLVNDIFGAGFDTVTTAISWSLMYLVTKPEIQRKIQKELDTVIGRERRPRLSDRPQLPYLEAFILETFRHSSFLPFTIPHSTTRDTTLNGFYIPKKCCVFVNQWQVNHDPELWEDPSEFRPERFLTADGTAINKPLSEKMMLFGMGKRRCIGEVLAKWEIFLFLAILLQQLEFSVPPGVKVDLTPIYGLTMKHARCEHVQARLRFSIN
Excerpt: (§1) Concomitant use of drugs that are moderate or strong inhibitors or inducers of these CYP enzymes should be avoided. […] Concomitant use of drugs that are substrates of CYP2D6 and have a narrow therapeutic index is not advised.

CYP2C19 = CYP2C19 (Homo sapiens, UniProt P33261); test: in vitro CYP inhibition; type: in vitro ADME
Excerpt: as §1

CYP2C9 = CYP2C9 (Homo sapiens, UniProt P11712); test: in vitro CYP inhibition; type: in vitro ADME
Excerpt: as §1

CYP2D6 [1] = biological target: T2, CYP2D6 (Homo sapiens, UniProt P10635); test: in vitro CYP inhibition; type: in vitro ADME
Excerpt: as §1

CYP3A4 = CYP3A4 (Homo sapiens, UniProt P08684); test: in vitro CYP inhibition; type: in vitro ADME
Excerpt: as §1

CYP2D6 [2] = biological target: T2, CYP2D6; test: nonclinical CYP substrate studies; type: in vitro ADME
Excerpt: as §1

CYP3A = test: nonclinical CYP substrate studies; type: in vitro ADME
Excerpt: as §1

[3] = Phase 1/2 study of ivaltinostat (IV) in combination with gemcitabine and erlotinib
Protocol: Ivaltinostat was administered on Days 1, 8 and 15 of a 28-day cycle in combination with gemcitabine (1000 mg/m^2; IV on Days 1, 8, and 15) and erlotinib (100 mg orally QD).
In the Phase 2 component of the study, 24 subjects received ivaltinostat at a dose level of 250 mg/m^2 in combination of gemcitabine (1000 mg/m^2; IV on Days 1, 8, and 15) and erlotinib (100 mg orally QD). In Phase 2, planned treatment duration was up to 6 cycles, but treatment could continue beyond 6 cycles if there was no progression of disease, at the discretion of the subject and treating physician.

[4] = tested on: germline BRCA-mutated metastatic pancreatic cancer; details: cited from earlier work
[5] = tested on: metastatic pancreatic cancer; details: first line; cited from earlier work
[6] = Phase 2, 250 mg/m^2 plus gemcitabine and erlotinib
[7] = Phase 2, 16 evaluable subjects, plus gemcitabine and erlotinib
[8] = Phase 2, 16 subjects with at least one tumor evaluation, plus gemcitabine and erlotinib

T2 sequence (P10635 whole entry): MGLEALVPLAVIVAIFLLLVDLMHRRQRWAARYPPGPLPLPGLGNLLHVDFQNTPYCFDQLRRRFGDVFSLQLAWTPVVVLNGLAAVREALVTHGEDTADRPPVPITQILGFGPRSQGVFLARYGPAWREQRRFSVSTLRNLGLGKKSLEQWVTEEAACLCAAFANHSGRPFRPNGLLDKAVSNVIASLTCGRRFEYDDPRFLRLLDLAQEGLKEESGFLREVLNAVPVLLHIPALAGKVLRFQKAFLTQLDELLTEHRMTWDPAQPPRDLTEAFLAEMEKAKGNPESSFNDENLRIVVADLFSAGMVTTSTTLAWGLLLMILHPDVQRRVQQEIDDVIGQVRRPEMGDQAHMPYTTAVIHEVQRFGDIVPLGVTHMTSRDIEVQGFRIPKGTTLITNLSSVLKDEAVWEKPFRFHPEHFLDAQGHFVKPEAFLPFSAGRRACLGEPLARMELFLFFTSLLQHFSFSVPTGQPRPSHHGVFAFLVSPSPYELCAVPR
Sequence of CYP2C9 (P11712 whole entry): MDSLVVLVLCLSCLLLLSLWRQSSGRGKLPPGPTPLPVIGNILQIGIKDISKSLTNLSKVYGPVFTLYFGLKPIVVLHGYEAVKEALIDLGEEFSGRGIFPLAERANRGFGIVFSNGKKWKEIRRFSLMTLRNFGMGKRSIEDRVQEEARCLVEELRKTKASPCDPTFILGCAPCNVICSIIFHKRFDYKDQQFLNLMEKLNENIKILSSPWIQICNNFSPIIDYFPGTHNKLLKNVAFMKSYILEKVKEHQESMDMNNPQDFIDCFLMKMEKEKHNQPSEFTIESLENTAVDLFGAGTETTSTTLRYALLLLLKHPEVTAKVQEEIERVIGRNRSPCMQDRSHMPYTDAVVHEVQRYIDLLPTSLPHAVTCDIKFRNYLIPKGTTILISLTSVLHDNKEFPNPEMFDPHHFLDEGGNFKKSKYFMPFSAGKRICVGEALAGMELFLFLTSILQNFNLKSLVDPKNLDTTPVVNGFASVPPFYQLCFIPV
Sequence of CYP2C19 (P33261 whole entry): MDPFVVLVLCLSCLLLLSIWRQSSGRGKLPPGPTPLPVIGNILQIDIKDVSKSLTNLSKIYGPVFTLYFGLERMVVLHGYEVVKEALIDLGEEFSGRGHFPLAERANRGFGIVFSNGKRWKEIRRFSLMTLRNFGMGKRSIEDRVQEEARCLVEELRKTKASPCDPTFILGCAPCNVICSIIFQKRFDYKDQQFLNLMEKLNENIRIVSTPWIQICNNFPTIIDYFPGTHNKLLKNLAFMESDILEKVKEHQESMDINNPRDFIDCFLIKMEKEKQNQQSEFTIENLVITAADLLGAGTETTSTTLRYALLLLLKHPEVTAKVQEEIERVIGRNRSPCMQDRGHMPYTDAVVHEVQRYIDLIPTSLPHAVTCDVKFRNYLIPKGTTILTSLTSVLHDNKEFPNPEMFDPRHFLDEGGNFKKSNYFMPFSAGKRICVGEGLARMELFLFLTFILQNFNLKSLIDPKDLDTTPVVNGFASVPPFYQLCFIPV
Sequence of CYP3A4 (P08684 whole entry): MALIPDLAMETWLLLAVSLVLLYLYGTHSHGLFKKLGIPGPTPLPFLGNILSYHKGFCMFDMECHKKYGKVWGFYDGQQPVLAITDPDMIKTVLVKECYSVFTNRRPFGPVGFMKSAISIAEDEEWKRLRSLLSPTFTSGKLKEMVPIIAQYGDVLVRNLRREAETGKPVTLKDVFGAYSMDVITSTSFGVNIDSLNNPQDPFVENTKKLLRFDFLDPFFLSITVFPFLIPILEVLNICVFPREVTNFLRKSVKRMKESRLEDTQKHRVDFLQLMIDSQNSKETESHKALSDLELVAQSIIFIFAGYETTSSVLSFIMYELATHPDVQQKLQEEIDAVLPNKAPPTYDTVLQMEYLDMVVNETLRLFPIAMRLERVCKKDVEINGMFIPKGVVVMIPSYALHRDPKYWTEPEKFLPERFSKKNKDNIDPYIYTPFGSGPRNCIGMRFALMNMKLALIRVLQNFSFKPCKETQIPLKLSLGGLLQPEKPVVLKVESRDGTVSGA

For `CCCCCOC(=O)Nc1nc(=O)n([C@@H]2O[C@H](C)[C@@H](O)[C@H]2O)cc1F` [Capecitabine, capecitabine], the “efficacy and tolerability of dose schedule” value (pancreatic cancer) is given as “effective and tolerable”.

In the case of `CN(C)CCCNC(=O)/C(=C/CCCCC(=O)NO)COc1cccc2ccccc12.O=P(O)(O)O` [ivaltinostat, (E)-N1-(3-(dimethylamino)propyl)-N8-hydroxy-2-((naphthalen-1-yloxy)methyl)oct-2-enediamide phosphate], the IC50 (CYP1A2) is reported as over 10 µM, the IC50 (CYP2C19) is reported as over 90 µM and the IC50 (CYP2C9) is reported as over 90 µM. The IC50 (CYP2D6 [1]) was 5.5 µM, the IC50 (CYP3A4) was over 10 µM and the “substrate for CYP2D6” value (CYP2D6 [2]) was “substrate”. For the same compound, the “substrate for CYP3A” value (CYP3A) was “substrate”, the “anemia, grade 3 treatment-related AE frequency” value [3, 6] was 17% and the “anemia, grade 4 treatment-related AE frequency” value [3, 6] was 0%. The “deaths related to SAEs considered related to the investigational drugs” value [3, 6] was “no deaths”, the “discontinuation of study drug due to an AE” value [3, 6] was “No subjects discontinued” and the “neutrophil count decreased, grade 3 treatment-related AE frequency” value [3, 6] was 13%. For the same compound, the “neutrophil count decreased, grade 4 treatment-related AE frequency” value [3, 6] was 17%, the “platelet count decreased, grade 3 treatment-related AE frequency” value [3, 6] was 17% and the “platelet count decreased, grade 4 treatment-related AE frequency” value [3, 6] was 13%. The tolerability [3, 6] was “generally well tolerated”, the partial responses [3, 7] was 25% and the “partial responses, number of patients” value [3, 7] was 4 patients. The stable disease [3, 7] was 68.8%, the “stable disease, number of patients” value [3, 7] was 11 patients and the “disease control rate (DCR)” value [3, 8] was 93.8%. The “objective response rate (ORR)” value [3, 8] was 25.0%.

For `O=C(c1cc(Cc2n[nH]c(=O)c3ccccc23)ccc1F)N1CCN(C(=O)C2CC2)CC1` [olaparib], the “median PFS” value ([4]; gBRCA patients after ≥16 weeks of platinum-based therapy, vs. placebo) is given as 7.4 months and the “HR (PFS vs. placebo)” value ([4]; gBRCA patients, p=0.004) is given as 0.53.

For FOLFIRINOX, the “median progression-free survival (PFS)” value [5] is given as 6.4 months and the “overall survival (OS)” value [5] is given as 11.1 months.
